Like-named read-outs stand apart in the source and are kept apart here.

The target in one assay is T1, GAT-1 (Rattus norvegicus, UniProt P23978).
T1 construct: expressed in transfected cells; host or cells: COS-7 cells, transient (DEAE-dextran)
Nature of the assay: [3H]GABA uptake by COS-7 cells transfected with GAT-1 (rB46a). The assay is classed as cell-based.

The target of a further assay is T2, rGAT-2 (Rattus norvegicus, UniProt P31646).
T2 construct: randomly primed GAT-2 full-length or GAT-3 truncated or full-length cDNA clones; expressed in transfected cells; host or cells: COS cells, transient, plasmid pEVJB-rB14b
T2 sequence (P31646 1-602): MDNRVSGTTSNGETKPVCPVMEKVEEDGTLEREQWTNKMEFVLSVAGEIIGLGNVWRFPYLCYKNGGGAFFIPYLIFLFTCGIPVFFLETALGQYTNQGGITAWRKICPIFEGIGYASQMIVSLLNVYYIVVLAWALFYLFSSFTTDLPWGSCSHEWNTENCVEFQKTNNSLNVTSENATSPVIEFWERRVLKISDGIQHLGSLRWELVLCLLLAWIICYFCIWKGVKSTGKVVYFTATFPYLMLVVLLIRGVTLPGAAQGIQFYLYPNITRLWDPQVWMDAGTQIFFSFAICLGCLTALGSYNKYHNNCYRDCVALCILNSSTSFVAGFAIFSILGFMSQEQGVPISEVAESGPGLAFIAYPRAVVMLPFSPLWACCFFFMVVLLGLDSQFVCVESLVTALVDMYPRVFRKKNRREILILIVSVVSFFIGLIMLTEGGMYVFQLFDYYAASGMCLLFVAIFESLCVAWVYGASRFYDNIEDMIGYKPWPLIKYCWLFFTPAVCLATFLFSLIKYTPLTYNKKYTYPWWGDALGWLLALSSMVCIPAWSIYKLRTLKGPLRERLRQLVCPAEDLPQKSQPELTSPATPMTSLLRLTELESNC
Kind of assay: [3H]GABA uptake, full competition curves at cloned rGAT-2 (transient transfection, COS cells). The assay is classed as cell-based.

The next assay concerns the target rat GAT-1 (Rattus norvegicus, UniProt P23978). Kind of assay: cell-based.
The target of a further assay is T3, GAT-3 (Rattus norvegicus, UniProt P31647).
T3 sequence (P31647 1-627): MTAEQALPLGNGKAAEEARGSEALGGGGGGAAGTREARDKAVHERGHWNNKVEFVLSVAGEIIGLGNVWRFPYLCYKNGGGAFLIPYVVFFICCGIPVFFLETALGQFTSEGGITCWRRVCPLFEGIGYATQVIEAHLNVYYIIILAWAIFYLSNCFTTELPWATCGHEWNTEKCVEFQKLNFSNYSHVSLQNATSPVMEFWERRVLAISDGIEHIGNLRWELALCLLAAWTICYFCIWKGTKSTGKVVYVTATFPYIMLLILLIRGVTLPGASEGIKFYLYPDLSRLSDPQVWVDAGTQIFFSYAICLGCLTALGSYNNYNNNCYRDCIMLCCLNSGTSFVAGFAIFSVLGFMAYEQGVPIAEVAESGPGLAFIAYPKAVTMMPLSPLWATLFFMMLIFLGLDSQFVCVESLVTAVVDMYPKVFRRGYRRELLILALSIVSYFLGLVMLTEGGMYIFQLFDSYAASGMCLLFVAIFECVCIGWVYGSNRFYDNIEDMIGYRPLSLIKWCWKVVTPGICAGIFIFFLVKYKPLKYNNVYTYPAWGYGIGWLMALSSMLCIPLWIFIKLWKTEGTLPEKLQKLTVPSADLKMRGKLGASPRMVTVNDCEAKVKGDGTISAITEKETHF
Nature of the assay: [3H]GABA uptake by COS cells transfected with GAT-3 (rB8b or K438-rB8b). It is filed as cell-based.

The next assay deals with T4, TAUT (Rattus norvegicus, UniProt P31643).
T4 sequence (P31643 1-621): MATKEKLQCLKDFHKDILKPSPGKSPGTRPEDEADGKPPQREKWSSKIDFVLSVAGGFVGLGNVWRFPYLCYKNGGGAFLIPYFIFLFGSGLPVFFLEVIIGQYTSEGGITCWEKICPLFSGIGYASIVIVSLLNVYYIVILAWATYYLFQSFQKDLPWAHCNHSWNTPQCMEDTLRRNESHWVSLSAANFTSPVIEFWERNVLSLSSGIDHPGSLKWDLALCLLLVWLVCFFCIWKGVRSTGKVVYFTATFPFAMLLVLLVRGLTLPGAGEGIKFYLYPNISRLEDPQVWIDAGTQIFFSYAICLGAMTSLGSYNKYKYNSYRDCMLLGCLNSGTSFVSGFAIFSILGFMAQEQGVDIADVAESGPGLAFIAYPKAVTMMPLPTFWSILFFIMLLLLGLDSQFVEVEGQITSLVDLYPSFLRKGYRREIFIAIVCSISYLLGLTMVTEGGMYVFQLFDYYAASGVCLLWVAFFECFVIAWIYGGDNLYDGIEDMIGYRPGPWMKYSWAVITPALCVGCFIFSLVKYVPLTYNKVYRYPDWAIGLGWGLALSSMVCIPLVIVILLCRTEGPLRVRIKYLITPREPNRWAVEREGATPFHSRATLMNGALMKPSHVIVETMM
Nature of the assay: [3H]taurine uptake, full competition curves at cloned TAUT (transient transfection, COS cells). The assay is classed as cell-based.

The target of the next assay is T5, rat GAT-3 (Rattus norvegicus, UniProt P31647).
T5 sequence (P31647 54-627 limits assumed): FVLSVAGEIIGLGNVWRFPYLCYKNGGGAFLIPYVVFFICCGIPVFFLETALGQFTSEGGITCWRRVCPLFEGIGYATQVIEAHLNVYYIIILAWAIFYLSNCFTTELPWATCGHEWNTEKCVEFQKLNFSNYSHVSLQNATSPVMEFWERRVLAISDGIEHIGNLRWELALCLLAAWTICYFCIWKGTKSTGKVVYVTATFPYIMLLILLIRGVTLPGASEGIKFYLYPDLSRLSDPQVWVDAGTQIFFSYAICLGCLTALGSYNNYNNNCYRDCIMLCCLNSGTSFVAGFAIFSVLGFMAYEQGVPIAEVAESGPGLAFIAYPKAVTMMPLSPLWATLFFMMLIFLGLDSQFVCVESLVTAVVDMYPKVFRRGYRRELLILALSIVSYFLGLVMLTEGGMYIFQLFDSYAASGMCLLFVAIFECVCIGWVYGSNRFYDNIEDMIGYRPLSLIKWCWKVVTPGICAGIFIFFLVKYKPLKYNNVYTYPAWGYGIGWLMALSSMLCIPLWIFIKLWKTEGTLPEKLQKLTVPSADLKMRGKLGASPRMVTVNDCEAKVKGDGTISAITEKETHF

In assay [1] the test system is endogenous taurine transporter in COS cells. Kind of assay: [3H]taurine uptake by non-transfected COS-7 cells (control). The assay is classed as cell-based. As to conditions: 50 nM [3H]taurine, 10 minutes, 37° C.
[2] abbreviates: COS-7, read-out: % Inhibition of [3H]GABA uptake, GAT-1.
[3] abbreviates: COS, read-out: % Inhibition of [3H]GABA uptake, GAT-3.
The mark [4] stands for this setting: full competition curves, 50 nM [3H]taurine, read-out: IC50 for inhibition of [3H]taurine uptake, TAUT (Table 8).
The mark [5] stands for this setting: read-out: IC50 for inhibition of [3H]GABA uptake, rGAT-2 (Table 8), full competition curves, 50 nM [3H]GABA.
[6] abbreviates: read-out: IC50 for inhibition of [3H]GABA uptake, rGAT-3 (Table 8), full competition curves, 50 nM [3H]GABA.
The mark [7] stands for this setting: inhibitor 10 μM, 50 nM [3H]GABA, 10 minutes, 37° C.

Method for rat GAT-1: (§1) Cells grown in 24-well plates were washed 3× with HEPES-buffered saline (HBS, in mM: NaCl, 150; HEPES, 20; CaCl2, 1; glucose, 10; KCl, 5; MgCl2, 1; pH 7.4) and allowed to equilibrate on a 37° C. slide warmer. After 10 minutes the medium was removed and unlabeled drugs in HBS were added (450 μl/well). […] Plates were incubated at 37° C. for 10 minutes, then washed rapidly 3× with ice-cold HBS, using a 24-position plate washer (Brandel, Gaithersburg, Mass.; model PW-12). Cells were solubilized with 0.05% sodium deoxycholate/0.1N NaOH (0.25 ml/well), an aliquot neutralized with 1N HCl, and radioactivity was determined by scintillation counting. Protein was quantified in an aliquot of the solubilized cells using a BIO-RAD protein assay kit, according to the manufacturer's directions.
(§2) Lipophilic inhibitors were dissolved in DMSO.
(§3) Data Analysis: Competition curves were conducted in duplicate, using 10 concentrations of unlabeled drug.
(§4) COS cells grown in 75 cm^2 or 150 cm^2 flasks in DMEM with 10% bovine calf serum, 100 U/ml penicillin G, and 100 μg/ml streptomycin sulfate (37° C., 5% CO2) were transfected using DEAE-dextran. On the day following transfection the cells were split into 24-well assay plates coated with poly-D-lysine (10 μg/ml), and transport was measured 24 hours later.
(§5) After 10 minutes the medium was removed and unlabeled drugs in HBS were added (450 μl/well). […] Plates were incubated at 37° C. for 10 minutes, then washed rapidly 3× with ice-cold HBS, using a 24-position plate washer (Brandel, Gaithersburg, Mass.; model PW-12). Cells were solubilized with 0.05% sodium deoxycholate/0.1N NaOH (0.25 ml/well), an aliquot neutralized with 1N HCl, and radioactivity was determined by scintillation counting. Protein was quantified in an aliquot of the solubilized cells using a BIO-RAD protein assay kit, according to the manufacturer's directions.
Method for rat GAT-3: as §1, §2, §3, §4, §5

The inhibition is how much of the control response was suppressed. Usually IC50 stands for the concentration at which inhibition is half-maximal. With `N[C@@H]1CCC[C@H](C(=O)O)C1` (relative stereo) [ACHC, cis-3-aminocyclohexanecarboxylic acid], the inhibition at 100 µM stood at 49 ± 10% on GAT-1 (setting [2]) and 0% on GAT-3 (setting [3]). For the same compound, the IC50 worked out at 25900 µM at rGAT-2, 132 ± 44 µM at rat GAT-1, 9230 µM on TAUT and 55100 µM against rat GAT-3.
With `NCCCC(=O)O` [GABA, gamma-aminobutyric acid], the IC50 on rGAT-2 is 17 ± 6 µM; on TAUT (setting [4]) it was 720 ± 170 µM; against rat GAT-3, 33 ± 10 µM. Further, the “VMAX of GABA transport, COS/rB8b and/or COS/K438-rB8b (GAT-3)” value on GAT-3 (various concentrations of [3H]GABA, 30 seconds) was 3.0±0.9 nmoles/mg protein.
As for `N=C(N)NCCS(=O)(=O)O` [GES, guanidinoethanesulfonic acid], the IC50 at rGAT-2 (setting [5]) is 696 ± 110 µM; on TAUT (setting [4]) it was 129 µM; on rat GAT-3 (setting [6]), 915 ± 49 µM. For the same compound, the “% Inhibition of [3H]taurine uptake, control” value (shortened to “% Inhibition … control”) is given as 6 ± 3 (4) % in assay [1] (inhibitor 10 μM), 47 ± 3 (5) % in assay [1] (inhibitor 100 μM) and 89 ± 1 (5) % in assay [1] (inhibitor 1 mM).
In the case of `NCC[C@H](N)C(=O)O` [L-DABA, L-(2,4)diaminobutyric acid], the figures for the inhibition at 100 µM at GAT-1 (setting [2]) and at GAT-3 (setting [3]) were 49 ± 8% and 4 ± 1%, respectively. For the same compound, the IC50 stood at 300 ± 51 µM on rGAT-2, 128 ± 12 µM at rat GAT-1, 41800 µM on TAUT and 710 ± 237 µM against rat GAT-3.
As for `O=C(O)C1=CCCN(CCON=C(c2ccccc2)c2ccccc2)C1` [NNC-711], the half-maximal inhibitory concentration (IC50) on rGAT-2 (setting [5]) was 729 ± 319 µM; at TAUT (setting [4]), 207 µM; on rat GAT-3 (setting [6]), 349 ± 151 µM; on rat GAT-3 (read-out: IC50 for inhibition of [3H]GABA uptake, rat GAT-3, transient transfection, 50 nM [3H]GABA), 349 ± 151 µM.
As for `O=C(O)C1=CCCNC1` [guvacine], the inhibition at 10 µM was 41 ± 3% at GAT-1 (setting [2]) and 8 ± 5% at GAT-3 (setting [3]). The IC50 on rGAT-2 turned out to be 228 ± 38 µM; on rat GAT-1 it was 39 ± 6 µM; at TAUT (setting [4]) it was 1030 µM; at rat GAT-3, 378 ± 175 µM.
For the compound `NCCS(=O)O` [hypotaurine], the IC50 was determined as 52 ± 6 µM on rGAT-2, 1010 µM against rat GAT-1, 47 µM on TAUT (setting [4]) and 73 ± 7 µM at rat GAT-3. In addition, the “% Inhibition … control” value in assay [1] (inhibitor 10 μM) was 41 ± 3 (7) %; in assay [1] (inhibitor 100 μM), 91 ± 1 (4) %; in assay [1] (inhibitor 1 mM), 99 ± 1 (4) %.
On to `NCCS(=O)(=O)O` [taurine, 2-aminoethanesulfonic acid], for which the IC50 amounted to 1270 µM at rGAT-2, 32300 µM on rat GAT-1, 48 ± 11 µM on TAUT (setting [4]) and 2860 µM against rat GAT-3. For the same compound, the entries for the “% Inhibition … control” value in assay [1] (inhibitor 10 μM), in assay [1] (inhibitor 100 μM) and in assay [1] (inhibitor 1 mM) were 38 ± 5 (7) %, 89 ± 2 (4) % and 100° %, respectively.
Take `NCCC(=O)O` [β-alanine]: the inhibition at 100 µM was 11 ± 1% on GAT-1 (setting [2]) and 70 ± 1% on GAT-3 (setting [3]). In addition, the IC50 on rGAT-2 came to 66 ± 9 µM; against rat GAT-1 it was 2920 ± 197 µM; at TAUT (setting [4]), 176 µM; against rat GAT-3, 110 ± 40 µM. The “% Inhibition … control” value is given as 9 ± 2 (6) % in assay [1] (inhibitor 10 μM), 63 ± 3 (6) % in assay [1] (inhibitor 100 μM) and 97 ± 1 (4) % in assay [1] (inhibitor 1 mM).
Regarding hydroxynipecotic acid [OH-nipecotic], at GAT-1 (setting [7]), the “% Inhibition of [3H]GABA uptake, GAT-1” value is reported as 34 ± 5 (3) %. For the same compound, the IC50 at rGAT-2 (setting [5]) is 567 ± 50 µM; on TAUT (setting [4]) it was 4810 µM; at rat GAT-3 (setting [6]), 467 ± 53 µM. Besides, on GAT-3 (setting [7]), the “% Inhibition of [3H]GABA uptake, GAT-3” value is given as 5 ± 2 (3) %.

The record behind these values is patent US20030143729A1 (Synaptic Pharmaceutical Corporation, priority 1992, published 2003).
